Results reported in paper PMC5916772 (ACS combinatorial science, 2017).

Experiments:
[1] = system: polyclonal anti-1′Nic antiserum; assay: Competition ELISA of polyclonal anti-1′Nic antiserum on 1′Nic-BSA coated plates; format: binding, mice; settings: pooled polyclonal anti-1′Nic antiserum; free HPs as competitors
[2] = system: monoclonal anti-1′Nic antibody, mAb-5F3; format: binding, mice

| SMILES | HP-IC50/Nic-IC50 ratio, binding activity to antiserum [1] | HP-IC50/Nic-IC50 ([2]; IC50 ratio of HP-IC50 to IC50 of free nicotine on the same ELISA plate) | IC50 ([2]; read-out: HP-IC50, free HPs as competitors, 1′Nic-BSA coated plates) [nM] |
| --- | --- | --- | --- |
| O=C(CCCN1CCC[C@H]1c1cccnc1)NC1CCC(C(=O)O)CC1 (stereo partly drawn) [HP 2, 4-(4-((S)-2-(Pyridin-3-yl)pyrrolidin-1-yl)butanamido)-cyclohexanecarboxylic Acid] | close to or larger than 1.0 |  |  |
| CN1CCC[C@H]1c1cccnc1 [free Nic, nicotine] |  | 1.0 | 1410 ± 250 |
